Measured values reported in PMC8908507 (ACS Omega, 2022).
“Also recorded” adds a separate entry of the source.

Tests used:
BACE1 = BACE1 (Homo sapiens, UniProt P56817); test: biochemical; details: read-out: residual activity (%) BACE1
MAO-B [1] = molecular target: T1, MAO-B (Homo sapiens, UniProt P27338); test: MAO-B inhibition, recombinant enzyme, benzylamine substrate; assay type: biochemical; details: for SI (MAO-B compared with MAO-A): IC50 (MAO-A)/IC50 (MAO-B); for IC50: IC50 MAO-B; for remaining activity at 1 µM: read-out: residual activity (%) MAO-B
T1 sequence (P27338 1-520): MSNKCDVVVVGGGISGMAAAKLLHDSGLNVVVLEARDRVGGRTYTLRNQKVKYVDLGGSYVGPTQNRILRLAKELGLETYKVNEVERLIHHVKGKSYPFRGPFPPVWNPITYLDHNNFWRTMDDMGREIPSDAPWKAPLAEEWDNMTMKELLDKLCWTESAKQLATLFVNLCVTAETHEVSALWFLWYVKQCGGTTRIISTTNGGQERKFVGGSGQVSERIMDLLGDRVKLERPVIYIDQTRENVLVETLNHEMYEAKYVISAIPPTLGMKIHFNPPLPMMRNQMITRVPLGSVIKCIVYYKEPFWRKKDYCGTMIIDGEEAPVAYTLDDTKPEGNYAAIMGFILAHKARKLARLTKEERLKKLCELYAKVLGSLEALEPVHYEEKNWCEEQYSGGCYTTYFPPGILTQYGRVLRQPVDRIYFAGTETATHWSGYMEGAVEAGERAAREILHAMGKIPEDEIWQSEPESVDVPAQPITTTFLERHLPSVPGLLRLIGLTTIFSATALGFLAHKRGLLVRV

AChE = AChE (Electrophorus electricus, UniProt O42275); test: AChE inhibition; details: 10 μM
MAO-A = molecular target: T2, MAO-A (Homo sapiens, UniProt P21397); test: biochemical; details: for remaining activity at 10 µM: read-out: residual activity (%) MAO-A
T2 sequence (P21397 1-527): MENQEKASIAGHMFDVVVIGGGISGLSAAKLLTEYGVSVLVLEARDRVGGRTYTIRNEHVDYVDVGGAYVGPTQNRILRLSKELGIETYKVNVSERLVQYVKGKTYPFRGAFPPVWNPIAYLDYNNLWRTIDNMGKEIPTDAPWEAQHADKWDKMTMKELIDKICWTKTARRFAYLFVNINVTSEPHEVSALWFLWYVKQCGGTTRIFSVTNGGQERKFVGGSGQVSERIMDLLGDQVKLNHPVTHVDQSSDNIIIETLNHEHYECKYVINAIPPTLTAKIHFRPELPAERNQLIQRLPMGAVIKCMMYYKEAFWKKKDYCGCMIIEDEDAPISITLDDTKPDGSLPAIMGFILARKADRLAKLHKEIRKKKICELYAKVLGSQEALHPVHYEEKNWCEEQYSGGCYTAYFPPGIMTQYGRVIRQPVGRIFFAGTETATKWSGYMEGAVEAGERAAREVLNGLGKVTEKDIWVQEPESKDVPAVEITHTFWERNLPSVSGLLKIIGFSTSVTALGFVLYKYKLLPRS

BChE = BChE (Equus caballus, UniProt P81908); details: 10 μM
Vero cells [2] = test: Cytotoxicity on Vero cells, MTT method; assay type: cell-based, African green monkey; details: 100 μg/mL, 24 h
Vero cells [3] = test: Intracellular ROS assay in H2O2-treated Vero cells; assay type: cell-based, African green monkey; details: 24 h drug treatment, vs H2O2-treated control
[4] = Cytotoxicity on Vero cells, MTT method; assay type: cell-based, African green monkey; details: African green monkey, Vero cells (normal kidney epithelial cell line)
MAO-B [5] = molecular target: T1, MAO-B; test: Reversibility of MAO-B inhibition by dialysis; assay type: biochemical
MAO-B [6] = details: cited from earlier work

Sequence of AChE (O42275 24-633): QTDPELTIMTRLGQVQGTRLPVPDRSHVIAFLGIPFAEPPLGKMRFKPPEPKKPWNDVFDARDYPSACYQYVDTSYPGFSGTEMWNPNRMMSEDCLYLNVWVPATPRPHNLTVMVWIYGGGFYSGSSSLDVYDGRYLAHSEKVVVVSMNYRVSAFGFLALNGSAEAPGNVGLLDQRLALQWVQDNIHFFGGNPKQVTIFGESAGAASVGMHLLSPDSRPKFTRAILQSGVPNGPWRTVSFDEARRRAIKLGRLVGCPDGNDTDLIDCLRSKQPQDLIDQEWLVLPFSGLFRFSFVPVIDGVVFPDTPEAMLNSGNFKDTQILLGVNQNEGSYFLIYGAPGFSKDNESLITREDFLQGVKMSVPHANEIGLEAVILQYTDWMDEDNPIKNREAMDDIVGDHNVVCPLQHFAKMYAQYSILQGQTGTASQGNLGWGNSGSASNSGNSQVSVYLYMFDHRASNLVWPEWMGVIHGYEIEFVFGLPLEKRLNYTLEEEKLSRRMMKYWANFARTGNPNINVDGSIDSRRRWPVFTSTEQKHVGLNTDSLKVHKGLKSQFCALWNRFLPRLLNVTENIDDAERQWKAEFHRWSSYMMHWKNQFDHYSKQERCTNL
Sequence of BACE1 (P56817 46-501): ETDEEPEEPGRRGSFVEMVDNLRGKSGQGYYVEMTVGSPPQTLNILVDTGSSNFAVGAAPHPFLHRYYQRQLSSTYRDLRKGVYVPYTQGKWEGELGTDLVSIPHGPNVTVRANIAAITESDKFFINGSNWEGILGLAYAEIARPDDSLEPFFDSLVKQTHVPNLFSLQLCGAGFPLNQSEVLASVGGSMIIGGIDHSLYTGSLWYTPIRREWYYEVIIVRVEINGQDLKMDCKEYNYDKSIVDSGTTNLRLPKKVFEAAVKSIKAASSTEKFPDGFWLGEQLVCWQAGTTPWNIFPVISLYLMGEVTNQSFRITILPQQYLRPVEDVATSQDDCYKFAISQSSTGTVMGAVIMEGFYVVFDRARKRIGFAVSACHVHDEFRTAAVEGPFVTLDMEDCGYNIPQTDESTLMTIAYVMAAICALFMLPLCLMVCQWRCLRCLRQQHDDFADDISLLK
Sequence of BChE (P81908 whole entry): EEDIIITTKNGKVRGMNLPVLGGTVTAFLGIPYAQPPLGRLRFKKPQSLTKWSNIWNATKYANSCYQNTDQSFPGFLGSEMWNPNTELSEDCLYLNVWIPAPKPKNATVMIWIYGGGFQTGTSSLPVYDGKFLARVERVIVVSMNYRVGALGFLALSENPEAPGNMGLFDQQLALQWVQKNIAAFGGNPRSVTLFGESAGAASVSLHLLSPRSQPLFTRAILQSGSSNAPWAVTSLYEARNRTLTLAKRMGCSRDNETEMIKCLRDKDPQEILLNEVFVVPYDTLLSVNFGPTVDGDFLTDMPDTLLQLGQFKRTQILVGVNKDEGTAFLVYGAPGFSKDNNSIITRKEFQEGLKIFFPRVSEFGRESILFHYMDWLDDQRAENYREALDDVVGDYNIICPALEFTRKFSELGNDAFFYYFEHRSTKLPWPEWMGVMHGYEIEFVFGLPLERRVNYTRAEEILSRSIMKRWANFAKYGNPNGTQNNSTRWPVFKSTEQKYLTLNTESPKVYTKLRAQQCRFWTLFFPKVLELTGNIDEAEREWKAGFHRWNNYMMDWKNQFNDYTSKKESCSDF

| SMILES | remaining activity at 10 µM (BACE1) [%] | SI (MAO-B compared with MAO-A) (MAO-B [1]) | IC50 (MAO-B [1]) [nM] | remaining activity at 1 µM (MAO-B [1]) [%] | residual activity (%) AChE (AChE) [%] | IC50 (MAO-A) [µM] | remaining activity at 10 µM (MAO-A) [%] | residual activity (%) BChE (BChE) [%] | toxicity by cellular morphology, phase-contrast microscopy (Vero cells [2]) | intracellular ROS scavenging (Vero cells [3]) | viability at 24 h, 80 μg/mL [4] [%] | relative MAO-B activity, dialyzed (AD) (MAO-B [5]; MK6/MK12 6.0 nM, lazabemide 0.22 μM, pargyline 0.28 μM, after dialysis) [%] | relative MAO-B activity, undialyzed (AU) (MAO-B [5]; MK6/MK12 6.0 nM, lazabemide 0.22 μM, pargyline 0.28 μM, preincubation 30 min) [%] | reversibility of MAO-B inhibition (MAO-B [5]; dialysis) | SI value (MAO-B [6]) | IC50 (MAO-B [6]; read-out: IC50 MAO-B) [nM] | Ki (MAO-B [6]; read-out: Ki MAO-B) [nM] | viability at 24 h, 60 μg/mL [4] [%] |
| --- | --- | --- | --- | --- | --- | --- | --- | --- | --- | --- | --- | --- | --- | --- | --- | --- | --- | --- |
| COc1ccc(/C=C/C=C/C(=O)c2ccc(Br)cc2)cc1 [MK8, (2E,4E)-1-(4-Bromophenyl)-5-(4-methoxyphenyl)penta-2,4-dien-1-one] | 80.9 ± 1.67 | 1443.8 | 16.7 ± 0.62 | 7.85 ± 0.22 | 86.1 ± 5.10 | 24.1 ± 0.038 | 69.6 ± 2.03 | 80.7 ± 7.70 |  |  |  |  |  |  |  |  |  |  |
| O=C(/C=C/C=C/c1ccc([N+](=O)[O-])cc1)c1ccc(Cl)cc1 [MK5, (2E,4E)-1-(4-Chlorophenyl)-5-(4-nitrophenyl)penta-2,4-dien-1-one] | 73.3 ± 2.51 | 4783.0 | 4.02 ± 0.13 | 5.81 ± 0.27 | 74.1 ± 1.42 | 19.2 ± 0.94 | 72.9 ± 0.44 | 71.6 ± 1.05 | no signs of toxicity | significant scavenging effect of reactive oxygen species; also recorded: significant ROS scavenging effect |  |  |  |  |  |  |  |  |
| O=C(/C=C/C=C/c1ccc([N+](=O)[O-])cc1)c1ccc(F)cc1 [MK13, (2E,4E)-1-(4-Fluorophenyl)-5-(4-nitrophenyl)penta-2,4-dien-1-one] | 76.7 ± 0.64 | 5635.2 | 4.24 ± 0.13 | 1.95 ± 0.067 | 91.5 ± 0.80 | 23.7 ± 0.17 | 71.5 ± 8.06 | 97.8 ± 1.55 |  |  |  |  |  |  |  |  |  |  |
| O=C(/C=C/C=C/c1ccccc1)c1ccc(Br)cc1 [MK6, (2E,4E)-1-(4-Bromophenyl)-5-phenylpenta-2,4-dien-1-one] | 74.1 ± 1.48 |  |  |  | 74.7 ± 0.66 | 20.6 ± 1.02 | 84 ± 1.22 | 97.5 ± 3.58 | no signs of toxicity | significant scavenging effect of reactive oxygen species; also recorded: significant ROS scavenging effect | > 70 | 79.2 | 34.9 | reversible inhibitors |  |  |  |  |
| O=C(/C=C/C=C/c1ccc(Br)cc1)c1ccc(F)cc1 [MK11, (2E,4E)-5-(4-Bromophenyl)-1-(4-fluorophenyl)penta-2,4-dien-1-one] | 71.4 ± 1.03 | 1394.7 | 19.8 ± 0.53 | 3.45 ± 0.21 | 77.8 ± 2.19 | 27.5 ± 0.82 | 76.9 ± 3.02 | 89.2 ± 6.58 |  |  |  |  |  |  |  |  |  |  |
| O=C(/C=C/C=C/c1ccccc1)c1ccc(Cl)cc1 [MK1, (2E,4E)-1-(4-Chlorophenyl)-5-phenylpenta-2,4-dien-1-one] | 77.1 ± 0.0087 | 1498.2 | 11.2 ± 1.65 | 2.17 ± 1.49 | 84.0 ± 0.23 | 16.7 ± 0.4 | 83 ± 2.71 | 94.1 ± 4.72 |  |  |  |  |  |  |  |  |  |  |
| O=C(C=CC=Cc1ccccc1)c1ccc(N2CCOCC2)cc1 [MO10, 1-[4-(morpholin-4-yl)phenyl]-5-phenylpenta-2,4-dien-1-one] |  |  |  |  |  |  |  |  |  |  |  |  |  |  | 366.13 | 44 | 8 ± 3 |  |
| COc1ccc(/C=C/C=C/C(=O)c2ccc(Cl)cc2)cc1 [MK3, (2E,4E)-1-(4-Chlorophenyl)-5-(4-methoxyphenyl)penta-2,4-dien-1-one] | 84.8 ± 0.53 | 1290.2 | 13.1 ± 0.81 | 5.81 ± 0.27 | 81.4 ± 1.06 | 16.9 ± 0.5 | 73.6 ± 2.83 | 83.2 ± 0.46 |  |  |  |  |  |  |  |  |  |  |
| COc1ccc(/C=C/C=C/C(=O)c2ccccc2)cc1 [MK14, (2E,4E)-5-(4-Methoxyphenyl)-1-phenylpenta-2,4-dien-1-one] | 77.3 ± 1.23 | 3871.5 | 4.89 ± 0.17 | -0.95 | 84.7 ± 5.62 | 18.9 ± 1.02 | 61.4 ± 6.27 | 89.0 ± 1.55 | no signs of toxicity | significant scavenging effect of reactive oxygen species; also recorded: significant ROS scavenging effect |  |  |  |  |  |  |  | > 80 |
| O=C(/C=C/C=C/c1ccc([N+](=O)[O-])cc1)c1ccc(Br)cc1 [MK10, (2E,4E)-1-(4-Bromophenyl)-5-(4-nitrophenyl)penta-2,4-dien-1-one] | 69.4 ± 1.03 | 481.0 | 40.6 ± 0.87 | 3.4 ± 0.14 | 84.0 ± 0.73 | 19.5 ± 0.59 | 69.1 ± 1.32 | 87.9 ± 1.86 |  |  |  |  |  |  |  |  |  |  |
| O=C(/C=C/C=C/c1ccc(Br)cc1)c1ccc(Cl)cc1 [MK2, (2E,4E)-5-(4-Bromophenyl)-1-(4-chlorophenyl)penta-2,4-dien-1-one] | 81.4 ± 0.97 | 232.4 | 101 ± 1.63 | 14.3 ± 0.43 | 82.4 ± 0.98 | 23.5 ± 0.86 | 97.8 ± 0.16 | 95.4 ± 2.86 |  |  |  |  |  |  |  |  |  |  |
| O=C(/C=C/C=C/c1ccc(Br)cc1)c1ccc(Br)cc1 [MK7, (2E,4E)-1,5-Bis(4-bromophenyl)penta-2,4-dien-1-one] | 84.5 ± 0.91 | 1400.0 | 15.5 ± 0.06 | 8.9 ± 0.15 | 75.8 ± 0.73 | 21.7 ± 2.01 | 85.4 ± 1.99 | 99.2 ± 1.09 |  |  |  |  |  |  |  |  |  |  |
| O=C(/C=C/C=C/c1ccc([N+](=O)[O-])cc1)c1ccccc1 [MK15, (2E,4E)-5-(4-Nitrophenyl)-1-phenylpenta-2,4-dien-1-one] | 89.5 ± 0.92 | 1025.8 | 12.4 ± 7.92 | -3.52 | 68.8 ± 0.80 | 12.7 ± 0.57 | 54.4 ± 5.37 | 80.2 ± 1.55 |  |  |  |  |  |  |  |  |  |  |
| O=C(/C=C/C=C/c1ccc(F)cc1)c1ccc(Cl)cc1 [MK4, (2E,4E)-1-(4-Chlorophenyl)-5-(4-fluorophenyl)penta-2,4-dien-1-one] | 72.5 ± 0.9 | 1609.8 | 9.67 ± 0.47 | 1.61 ± 2.28 | 90.7 ± 0.57 | 15.6 ± 0.63 | 77 ± 6.2 | 94.9 ± 7.16 |  |  |  |  |  |  |  |  |  |  |
| O=C(/C=C/C=C/c1ccc(F)cc1)c1ccc(Br)cc1 [MK9, (2E,4E)-1-(4-Bromophenyl)-5-(4-fluorophenyl)penta-2,4-dien-1-one] | 65 ± 1.61 | 1671.7 | 13.5 ± 1.06 | 2.6 ± 0.57 | 57.7 ± 0.00 | 22.5 ± 0.047 | 74.9 ± 1.29 | 87.4 ± 6.95 |  |  |  |  |  |  |  |  |  |  |
